# Assay results reported in patent US20220056043A1, “NITROGEN-CONTAINING FUSED CYCLIC COMPOUND, PREPARATION METHOD THEREFOR AND USE THEREOF” (SICHUAN KELUN-BIOTECH BIOPHARMACEUTICAL CO., LTD., priority 2019, published 2022).
# Like-named read-outs stand apart in the source and are kept apart here.
# Key:
# [1] = biological target: T1, hNLRP3 inflammasome (Homo sapiens, UniProt Q96P20); test: Agonistic effect on the expression of IL-1β in THP-1 cells after PMA-induced differentiation (HTRF); type: cell-based; conditions: IL-1β level, PMA-differentiated THP-1 cells, 6 hours
# T1 construct: endogenous in cells; host or cells: THP-1 cells, PMA-differentiated
# Outline: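 THP-1 cells differentiated with 1 μM PMA for 24 h, then replated at 1×10^5 cells/well in RPMI 1640 with 2% FBS. Compounds added for 6 h at 37 °C, 5% CO2. Supernatant IL-1β measured by HTRF; EC50 from four-parameter variable-slope fit.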
# [2] = tested on: THP1-defNLRP3 cells; test: Agonistic effect on the expression of IL-1β in NLRP3 deficient THP1 cells (THP1-defNLRP3) after PMA-induced differentiation (HTRF); type: cell-based, human; conditions: IL-1β level, PMA-differentiated NLRP3 deficient THP1 cells, 6 hours, highest test concentration 30 μM, read-out: hNLRP3 EC50 (μM) (THP-1defNLRP3)
# Outline: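 PMA-differentiated (1 μM, 24 h) NLRP3-deficient THP1 macrophages, 1×10^5 cells/well in RPMI 1640 with 2% heat-inactivated FBS, treated with compound for 6 h at 37 °C. Supernatant IL-1β measured by HTRF. EC50 from four-parameter variable-slope fit.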
# T1 sequence (Q96P20 whole entry): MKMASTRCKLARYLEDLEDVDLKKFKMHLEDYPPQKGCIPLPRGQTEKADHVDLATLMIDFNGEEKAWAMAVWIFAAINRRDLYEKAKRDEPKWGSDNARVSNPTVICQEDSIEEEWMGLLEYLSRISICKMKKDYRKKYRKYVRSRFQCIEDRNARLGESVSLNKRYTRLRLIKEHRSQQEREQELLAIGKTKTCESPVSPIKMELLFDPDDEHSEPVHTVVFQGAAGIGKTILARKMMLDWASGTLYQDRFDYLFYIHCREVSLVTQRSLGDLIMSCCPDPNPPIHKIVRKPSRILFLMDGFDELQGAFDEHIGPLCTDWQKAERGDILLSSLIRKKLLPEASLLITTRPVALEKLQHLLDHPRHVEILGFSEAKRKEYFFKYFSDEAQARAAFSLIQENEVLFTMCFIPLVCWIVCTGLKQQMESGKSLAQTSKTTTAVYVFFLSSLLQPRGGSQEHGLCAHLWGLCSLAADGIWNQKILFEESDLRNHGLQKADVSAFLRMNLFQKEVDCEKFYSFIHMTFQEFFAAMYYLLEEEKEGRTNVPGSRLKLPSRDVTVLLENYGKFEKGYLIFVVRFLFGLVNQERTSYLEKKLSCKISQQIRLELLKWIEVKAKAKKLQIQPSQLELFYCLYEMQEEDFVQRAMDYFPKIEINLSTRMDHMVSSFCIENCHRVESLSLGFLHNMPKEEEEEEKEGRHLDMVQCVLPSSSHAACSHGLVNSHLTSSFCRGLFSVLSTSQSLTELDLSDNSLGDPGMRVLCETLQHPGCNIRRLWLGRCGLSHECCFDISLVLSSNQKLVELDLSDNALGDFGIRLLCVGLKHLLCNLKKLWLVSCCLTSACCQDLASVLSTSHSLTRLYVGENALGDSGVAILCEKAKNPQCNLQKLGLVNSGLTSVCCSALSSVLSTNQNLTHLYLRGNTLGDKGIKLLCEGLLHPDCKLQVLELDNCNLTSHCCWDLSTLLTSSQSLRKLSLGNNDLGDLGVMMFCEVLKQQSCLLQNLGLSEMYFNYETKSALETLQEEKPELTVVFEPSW
SMILES,EC50 [1] [µM],"EC50 ([2]; Homo sapiens, THP-1) [µM]",EC50 [2] [µM]
C[C@@H](O)CNc1cc(N)nc2cc(-c3ccn[nH]3)sc12 [Compound 29],0.16,> 30,
"C[C@@H]1CN(CCNc2cc(N)nc3cc(-c4ccn[nH]4)sc23)C[C@@H](C)O1 [Compound 124, N^7-(2-((2R,6R)-2,6-dimethylmorpholino)ethyl)-2-(1H-pyrazol-5-yl)thieno[3,2-b]pyridine-5,7-diamine]",0.05,> 30,
"C[C@@H](CCO)Nc1cc(N)nc2cc(-c3ccn[nH]3)sc12 [Compound 125, (S)-3-((5-amino-2-(1H-pyrazol-5-yl)thieno[3,2-b]pyridin-7-yl)amino)butanol]",0.03,> 30,
"C[C@]1(O)C[C@@H](Nc2cc(N)nc3cc(-c4ccn[nH]4)sc23)C1 [Compound 129, (1s,3s)-3-((5-amino-2-(1H-pyrazol-5-yl)thieno[3,2-b]pyridin-7-yl)amino)-1-methylcyclobutanol]",0.03,> 30,
"C[C@H](Nc1cc(N)nc2cc(-c3ccn[nH]3)sc12)c1cccc(C(F)(F)F)c1 [Compound 131, (S)-2-(1H-pyrazol-5-yl)-N^7-(1-(3-(trifluoromethyl)phenyl)ethyl)thieno[3,2-b]pyridine-5,7-diamine]",0.06,> 30,
"CC[C@@H](CO)Nc1cc(N)nc2cc(-c3ccn[nH]3)sc12 [Compound 132, (S)-2-((5-amino-2-(1H-pyrazol-5-yl)thieno[3,2-b]pyridin-7-yl)amino)-1-butanol]",3.48,> 30,
"CNC(=O)CNc1cc(N)nc2cc(-c3ccn[nH]3)sc12 [Compound 137, 2-((5-amino-2-(1H-pyrazol-5-yl)thieno[3,2-b]pyridin-7-yl)amino)-N-methylacetamide]",0.95,> 30,
"Nc1cc(NCC(=O)NC2CC2)c2sc(-c3ccn[nH]3)cc2n1 [Compound 138, 2-((5-amino-2-(1H-pyrazol-5-yl)thieno[3,2-b]pyridin-7-yl)amino)-N-cyclopropylacetamide]",0.2,> 30,
"CN(CCO)c1cc(N)nc2cc(-c3ccn[nH]3)sc12 [Compound 139, 2-((5-amino-2-(1H-pyrazol-5-yl)thieno[3,2-b]pyridin-7-yl)(methyl)amino)ethanol]",0.07,> 30,
"CCN(CCNc1cc(N)nc2cc(-c3ccn[nH]3)sc12)C(=O)Cc1cccc(C)c1 [Compound 140, N-(2-((5-amino-2-(1H-pyrazol-5-yl)thieno[3,2-b]pyridin-7-yl)amino)ethyl)-N-ethyl-2-(m-tolyl)acetamide]",0.5,> 30,
"Nc1cc(N[C@H]2[C@@H]3CNC[C@@H]32)c2sc(-c3ccn[nH]3)cc2n1 [Compound 142, N^7-((1R,5S,6S)-3-azabicyclo[3.1.0]hex-6-yl)-2-(1H-pyrazol-5-yl)thieno[3,2-b]pyridin-5,7-diamine]",0.14,> 30,
"Nc1cc(NC2CCC(F)(F)CC2)c2sc(-c3ccn[nH]3)cc2n1 [Compound 143, N^7-(4,4-difluorocyclohexyl)-2-(1H-pyrazol-5-yl)thieno[3,2-b]pyridin-5,7-diamine]",0.08,> 30,
"CC(C)C[C@H](CO)Nc1cc(N)nc2cc(-c3ccn[nH]3)sc12 [Compound 144, (R)-2-((5-amino-2-(1H-pyrazol-5-yl)thieno[3,2-b]pyridin-7-yl)amino)-4-methyl-1-pentanol]",0.38,> 30,
"Nc1cc(N[C@H]2CC[C@H](O)CC2)c2sc(-c3ccn[nH]3)cc2n1 [Compound 147, (1R,4R)-4-((5-amino-2-(1H-pyrazol-5-yl)thieno[3,2-b]pyridin-7-yl)amino)cyclohexanol]",0.03,> 30,
"C[C@@H]1CN(c2cc(N)nc3cc(-c4ccn[nH]4)sc23)C[C@@H](C)O1 [Compound 148, 7-((2R,6R)-2,6-dimethylmorpholino)-2-(1H-pyrazol-5-yl)thieno[3,2-b]pyridine-5-amine]",0.008,> 30,

# Further lines, results first:
EC50 [1] [µM],"EC50 ([2]; Homo sapiens, THP-1) [µM]",EC50 [2] [µM],SMILES
0.54,> 30,,"CC(C)(O)CNc1cc(N)nc2cc(-c3ccn[nH]3)sc12 [Compound 28, (1-(5-amino-2-(1H-pyrazol-5-yl)thieno[3,2-b]pyridin-7-yl)amino)-2-methyl-2-propanol]"
0.03,,> 30,"Nc1cc(N[C@@H]2CC[C@@H](O)C2)c2sc(-c3ccn[nH]3)cc2n1 [Compound 30, (1R,3R)-3-((5-amino-2-(1H-pyrazol-5-yl)thieno[3,2-b]pyridin-7-yl)amino)cyclopentanol]"
0.1,> 30,,"Nc1cc(NC(CCO)c2ccccc2)c2sc(-c3ccn[nH]3)cc2n1 (stereo not shown) [Compound 123, 3-((5-amino-2-(1H-pyrazol-5-yl)thieno[3,2-b]pyridin-7-yl)amino)-3-phenyl-1-propanol]"
0.35,> 30,,"Nc1cc(NCC2CCC2)c2sc(-c3ccn[nH]3)cc2n1 [Compound 126, N^7-(cyclobutylmethyl)-2-(1H-pyrazol-5-yl)thieno[3,2-b]pyridine-5,7-diamine]"
0.11,> 30,,"CN(CCCO)c1cc(N)nc2cc(-c3ccn[nH]3)sc12 [Compound 127, 3-((5-amino-2-(1H-pyrazol-5-yl)thieno[3,2-b]pyridin-7-yl)(methyl)amino)-1-propanol]"
0.11,> 30,,"C[C@H]1CC[C@H](Nc2cc(N)nc3cc(-c4ccn[nH]4)sc23)CC1 [Compound 128, N^7-((1R,4R)-4-methylcyclohexyl)-2-(1H-pyrazol-5-yl)thieno[3,2-b]pyridine-5,7-diamine]"
0.58,> 30,,"COC[C@@H](C)Nc1cc(N)nc2cc(-c3ccn[nH]3)sc12 [Compound 133, (R)—N^7-(1-methoxyprop-2-yl)-2-(1H-pyrazol-5-yl)thieno[3,2-b]pyridine-5,7-diamine]"
0.03,> 30,,"Cc1cccnc1CNc1cc(N)nc2cc(-c3ccn[nH]3)sc12 [Compound 134, N^7-((3-methylpyridin-2-yl)methyl)-2-(1H-pyrazol-5-yl)thieno[3,2-b]pyridine-5,7-diamine]"
0.32,> 30,,"Nc1cc(NCCN2CCCC2=O)c2sc(-c3ccn[nH]3)cc2n1 [Compound 135, 1-(2-((5-amino-2-(1H-pyrazol-5-yl)thieno[3,2-b]pyridin-7-yl)amino)ethyl)pyrrolidin-2-one]"
0.05,> 30,,Nc1cc(NCC(CO)CO)c2sc(-c3ccn[nH]3)cc2n1 [Compound 136]
0.03,> 30,,"CC(C)CNc1cc(N)nc2cc(-c3ccn[nH]3)sc12 [Compound 141, N^7-isobutyl-2-(1H-pyrazol-5-yl)thieno[3,2-b]pyridin-5,7-diamine]"
0.31,> 30,,"CCC(=O)N(CC)CCNc1cc(N)nc2cc(-c3ccn[nH]3)sc12 [Compound 145, N-(2-((5-amino-2-(1H-pyrazol-5-yl)thieno[3,2-b]pyridin-7-yl)amino)ethyl)-N-ethylpropionamide]"
0.29,> 30,,"CCN(CCNc1cc(N)nc2cc(-c3ccn[nH]3)sc12)C(=O)C1CC1 [Compound 146, N-(2-((5-amino-2-(1H-pyrazol-5-yl)thieno[3,2-b]pyridin-7-yl)amino)ethyl)-N-ethylcyclopropyl formamide]"
0.04,> 30,,"Cc1noc(C)c1CNc1cc(N)nc2cc(-c3ccn[nH]3)sc12 [Compound 149, N^7-((3,5-dimethylisoxazol-4-yl)methyl)-2-(1H-pyrazol-5-yl)thieno[3,2-b]pyridine-5,7-diamine]"
0.16,> 30,,Nc1cc(NCCCN2CCCC2=O)c2sc(-c3ccn[nH]3)cc2n1 [Compound 150]
3.66,> 30,,Cc1c(-c2cc[nH]n2)sc2c(NCC(C)(C)CO)cc(N)nc12 [Compound 151]
2.75,> 30,,COCCNc1cc(N)nc2c(C)c(-c3cc[nH]n3)sc12 [Compound 152]
